According to ChEMBL document CHEMBL1201862, “PubChem BioAssay data set” (2004):
Activity calls are given as the source filed them.

Tests used:
[1] = viability of uninfected HEp-2 cells – cell-based, HTS, cytotoxicity control for RSV inhibitor project, dose response (AID 2410); assay type: functional; conditions: human respiratory syncytial virus
[2] = molecular target: T1, Corticotropin-releasing factor receptor 2/Corticotropin-releasing factor-binding protein (Homo sapiens, UniProt P24387+Q13324); test: Dose Response confirmation of uHTS hits for small molecule antagonists of the CRF-binding protein and CRF-R2 receptor complex.; assay type: functional; conditions: read-out: IC50_Mean
T1 sequence (Q13324 whole entry): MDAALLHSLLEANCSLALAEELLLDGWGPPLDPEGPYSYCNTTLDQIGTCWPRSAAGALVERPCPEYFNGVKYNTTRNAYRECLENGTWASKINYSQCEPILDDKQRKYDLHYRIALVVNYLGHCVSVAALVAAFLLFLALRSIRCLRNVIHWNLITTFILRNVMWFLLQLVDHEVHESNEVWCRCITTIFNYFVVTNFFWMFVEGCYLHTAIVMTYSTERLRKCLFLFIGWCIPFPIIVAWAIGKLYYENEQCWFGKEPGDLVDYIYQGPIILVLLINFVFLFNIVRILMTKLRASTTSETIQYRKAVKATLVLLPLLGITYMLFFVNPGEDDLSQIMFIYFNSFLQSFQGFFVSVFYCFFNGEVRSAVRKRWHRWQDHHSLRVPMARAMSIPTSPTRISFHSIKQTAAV
T1 sequence (P24387 whole entry): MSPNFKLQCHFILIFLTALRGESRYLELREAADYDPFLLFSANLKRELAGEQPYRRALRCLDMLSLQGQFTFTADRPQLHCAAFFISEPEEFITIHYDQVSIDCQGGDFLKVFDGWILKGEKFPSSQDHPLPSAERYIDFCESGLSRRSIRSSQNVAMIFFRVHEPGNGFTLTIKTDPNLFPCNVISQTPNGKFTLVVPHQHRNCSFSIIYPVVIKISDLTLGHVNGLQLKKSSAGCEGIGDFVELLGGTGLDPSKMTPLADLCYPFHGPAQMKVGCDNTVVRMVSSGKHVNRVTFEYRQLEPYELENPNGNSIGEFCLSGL

[3] = molecular target: T1, Corticotropin-releasing factor receptor 2/Corticotropin-releasing factor-binding protein; test: activators of CRF receptor 2 with binding protein – uHTS hits, confirmation (AID 602473); assay type: functional; conditions: read-out: EC50_Mean
[4] = blockers of CRF-binding protein–CRF-R2 complex – cell-based, uHTS hits, 384-well, dose response (AID 651639); assay type: functional, Homo sapiens; conditions: read-out: IC50_Mean
NADPH oxidase 1 = molecular target: T2, NADPH oxidase 1 (Homo sapiens, UniProt Q9Y5S8); assay type: functional, cell-based;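 note: Cell-based assay with luminescence read-out, IC50 derived from inhibitor dose-response curves; intracellular ROS from endogenous NOX1 in intact HT29 colon cancer cells; potency of inhibitors that lower the ROS luminescence signal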
T2 sequence (Q9Y5S8 whole entry): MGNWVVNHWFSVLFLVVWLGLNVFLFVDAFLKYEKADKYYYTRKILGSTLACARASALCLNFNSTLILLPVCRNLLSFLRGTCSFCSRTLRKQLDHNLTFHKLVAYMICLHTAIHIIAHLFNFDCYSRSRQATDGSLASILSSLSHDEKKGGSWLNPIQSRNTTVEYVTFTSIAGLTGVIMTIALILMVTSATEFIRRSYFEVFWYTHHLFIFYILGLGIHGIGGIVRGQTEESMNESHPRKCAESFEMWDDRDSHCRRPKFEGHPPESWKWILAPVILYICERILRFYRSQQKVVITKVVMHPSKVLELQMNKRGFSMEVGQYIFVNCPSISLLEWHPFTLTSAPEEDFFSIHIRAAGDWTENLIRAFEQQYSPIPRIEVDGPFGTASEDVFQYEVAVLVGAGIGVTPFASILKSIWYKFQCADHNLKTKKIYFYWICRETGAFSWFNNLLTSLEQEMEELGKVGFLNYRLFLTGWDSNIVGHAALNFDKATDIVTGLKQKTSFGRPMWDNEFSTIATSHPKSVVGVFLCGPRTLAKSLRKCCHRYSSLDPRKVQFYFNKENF

Estrogen receptor = molecular target: T3, Estrogen receptor (Homo sapiens, UniProt P03372);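 note: potency for inhibiting coactivator peptide recruitment to the receptor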
T3 sequence (P03372 whole entry): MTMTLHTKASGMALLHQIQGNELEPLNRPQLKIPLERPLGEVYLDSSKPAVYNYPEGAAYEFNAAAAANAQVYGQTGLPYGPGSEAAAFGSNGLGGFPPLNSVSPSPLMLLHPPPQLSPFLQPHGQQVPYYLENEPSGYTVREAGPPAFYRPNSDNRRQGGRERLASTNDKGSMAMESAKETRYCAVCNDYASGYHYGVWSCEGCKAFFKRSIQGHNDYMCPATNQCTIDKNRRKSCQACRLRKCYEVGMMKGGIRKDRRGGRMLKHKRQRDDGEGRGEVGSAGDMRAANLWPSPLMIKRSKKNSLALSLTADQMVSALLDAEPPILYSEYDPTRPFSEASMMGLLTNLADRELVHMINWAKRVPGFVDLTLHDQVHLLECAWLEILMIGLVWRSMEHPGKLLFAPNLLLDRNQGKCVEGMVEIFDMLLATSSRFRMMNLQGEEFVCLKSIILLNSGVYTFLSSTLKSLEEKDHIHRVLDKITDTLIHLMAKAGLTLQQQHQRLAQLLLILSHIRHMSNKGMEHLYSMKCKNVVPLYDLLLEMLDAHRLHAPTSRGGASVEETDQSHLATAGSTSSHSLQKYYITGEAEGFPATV

Estrogen receptor beta [5] = molecular target: T4, Estrogen receptor beta (Homo sapiens, UniProt Q92731);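 note: recombinant ER-beta bound to coactivator SRC1 peptide in presence of estradiol agonist; inhibitors block coactivator peptide binding and lower the FRET signal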
Estrogen receptor beta [6] = molecular target: T4, Estrogen receptor beta; test: blockers of SRC-3 recruitment to ERβ – biochemical, ELISA, streptavidin-HRP readout, orthogonal assay, confirmation (AID 1060)
[7] = system: Streptococcus sp. 'group A'; test: Streptococcus pyogenes SK(-)GAS viability under kanamycin – luminescence, BacTiterGlo, confirmation, counter-screen for streptokinase expression inhibitor project, dose response (AID 1900); assay type: functional, organism-based
Streptokinase A = molecular target: T5, Streptokinase A (Streptococcus pyogenes serotype M1, UniProt P10520); test: viability-normalized secreted streptokinase activity reduction – plasminogen activation absorbance, OD405, dose response (AID 1914); assay type: functional, Streptococcus pyogenes M1 GAS;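 note: secreted streptokinase activity via plasminogen activation per viability signal from cell pellet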
T5 sequence (P10520 whole entry): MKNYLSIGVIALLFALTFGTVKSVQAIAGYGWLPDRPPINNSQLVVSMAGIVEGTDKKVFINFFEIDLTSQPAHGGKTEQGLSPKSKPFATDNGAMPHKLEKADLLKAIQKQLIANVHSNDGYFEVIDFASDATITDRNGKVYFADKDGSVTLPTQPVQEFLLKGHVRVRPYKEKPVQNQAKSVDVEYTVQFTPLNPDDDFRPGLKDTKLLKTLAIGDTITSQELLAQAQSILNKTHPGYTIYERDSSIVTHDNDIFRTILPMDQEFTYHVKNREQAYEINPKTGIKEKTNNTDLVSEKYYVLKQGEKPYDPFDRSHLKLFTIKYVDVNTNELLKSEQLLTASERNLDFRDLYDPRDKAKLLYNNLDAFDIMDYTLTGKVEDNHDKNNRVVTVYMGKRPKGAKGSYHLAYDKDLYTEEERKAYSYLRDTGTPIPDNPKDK

Streptococcus = test: GAS UMAA2166 growth inhibition – luminescence, BacTiterGlo, counter-screen for streptokinase expression inhibitor project, dose response (AID 1915); assay type: functional, organism-based;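 note: potency for reduction of bacterial viability or growth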
[8] = Luminescence Cell-Based Dose Retest to Confirm Inhibitors of Cancer Stem Cells. [Related pubchem assays (depositor defined):AID2717, AID2721]; assay type: functional; conditions: Homo sapiens
Nonstructural protein 1 = Nonstructural protein 1 (Influenza A virus, UniProt Q194T2); assay type: functional, Influenza A virus (A/California/07/2009(H1N1))
INS1 = test: INS-1E survival protection against cytokine death – cell-based, luminescence, retest, dose response (AID 449756); assay type: functional; conditions: Rattus norvegicus;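 note: cell death triggered by IL-1 beta plus TNF-alpha plus IFN-gamma mixture; protective hits raise ATP signal compared with cytokine alone wells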
[9] = molecular target: Peroxisome proliferator-activated receptor gamma/Nuclear receptor coactivator 2 (Homo sapiens, UniProt P37231); assay type: functional;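 note: agonist potency for raising coactivator recruitment to the receptor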
[10] = molecular target: Peroxisome proliferator-activated receptor gamma/Nuclear receptor coactivator 1 (Homo sapiens, UniProt P37231); assay type: functional;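 note: agonist potency as compounds enhance coactivator SRC-1 recruitment to PPARgamma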
[11] = molecular target: Peroxisome proliferator-activated receptor gamma/Nuclear receptor coactivator 3 (Homo sapiens, UniProt P37231); assay type: functional;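 note: agonist potency for raising coactivator recruitment to the receptor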
[12] = molecular target: T6, Heat shock factor protein 1 (Mus musculus, UniProt P38532); test: decrease of HSF1-responsive luciferase luminescence – cell-based, NIH3T3, dose retest, confirmation (AID 2382); assay type: functional;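 note: NIH3T3 fibroblasts with HSF1-driven luciferase reporter stressed by proteasome inhibitor MG132; luminescence from HSF1-driven luciferase expression after 8 hours of MG132 stress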
T6 sequence (P38532 whole entry): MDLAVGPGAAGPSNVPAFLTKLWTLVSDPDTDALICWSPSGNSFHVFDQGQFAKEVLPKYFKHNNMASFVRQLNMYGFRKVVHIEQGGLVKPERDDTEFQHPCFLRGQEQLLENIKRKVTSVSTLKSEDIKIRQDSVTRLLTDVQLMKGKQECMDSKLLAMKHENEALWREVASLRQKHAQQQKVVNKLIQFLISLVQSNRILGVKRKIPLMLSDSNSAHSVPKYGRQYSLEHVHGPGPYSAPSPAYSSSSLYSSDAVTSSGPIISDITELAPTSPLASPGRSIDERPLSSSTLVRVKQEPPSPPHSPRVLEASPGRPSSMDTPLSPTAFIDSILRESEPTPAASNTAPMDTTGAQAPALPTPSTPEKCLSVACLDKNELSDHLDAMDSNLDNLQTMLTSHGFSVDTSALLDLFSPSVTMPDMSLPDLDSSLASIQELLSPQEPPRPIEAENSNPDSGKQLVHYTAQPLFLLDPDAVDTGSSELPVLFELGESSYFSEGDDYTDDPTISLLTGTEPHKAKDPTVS

[13] = HPDE-C7 pancreatic duct cell viability loss – fluorescence, HTS (AID 430); assay type: functional, cell-based; conditions: Homo sapiens
[14] = viability loss of HPDE-C7K cells – cell-based, fluorescence, HTS, primary screen (AID 431); assay type: functional; conditions: Homo sapiens
HEK293 = test: EBV LMP1 TES2 canonical NF-kB signalling blockers – cell-based, HEK293, luciferase, cherry-pick, dose response (AID 588343); assay type: functional; conditions: Homo sapiens
[15] = molecular target: T7, Rac GTPase-activating protein 1 (Homo sapiens, UniProt Q9H0H5); test: blockers of MgcRacGAP-driven Rac1 GTP hydrolysis – biochemical, ADP Hunter fluorescence, primary and confirmatory, confirmation (AID 624330); assay type: functional
T7 sequence (Q9H0H5 whole entry): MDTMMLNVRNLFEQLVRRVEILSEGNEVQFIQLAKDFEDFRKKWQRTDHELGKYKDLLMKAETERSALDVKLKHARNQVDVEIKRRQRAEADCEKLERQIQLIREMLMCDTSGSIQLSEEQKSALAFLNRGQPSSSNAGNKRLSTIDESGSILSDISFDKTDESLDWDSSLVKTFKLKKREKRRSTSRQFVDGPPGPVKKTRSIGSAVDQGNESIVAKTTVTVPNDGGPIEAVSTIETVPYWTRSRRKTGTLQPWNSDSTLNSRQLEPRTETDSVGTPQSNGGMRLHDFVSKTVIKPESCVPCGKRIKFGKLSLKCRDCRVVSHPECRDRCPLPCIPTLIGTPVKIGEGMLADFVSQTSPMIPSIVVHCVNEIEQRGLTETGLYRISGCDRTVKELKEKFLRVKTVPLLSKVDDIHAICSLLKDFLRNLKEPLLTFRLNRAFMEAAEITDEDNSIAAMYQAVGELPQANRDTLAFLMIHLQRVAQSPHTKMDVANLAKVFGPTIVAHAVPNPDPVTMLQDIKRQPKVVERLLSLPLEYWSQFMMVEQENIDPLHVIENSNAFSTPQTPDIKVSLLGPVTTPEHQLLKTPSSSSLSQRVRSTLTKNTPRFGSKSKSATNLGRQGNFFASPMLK

T4 sequence (Q92731 whole entry): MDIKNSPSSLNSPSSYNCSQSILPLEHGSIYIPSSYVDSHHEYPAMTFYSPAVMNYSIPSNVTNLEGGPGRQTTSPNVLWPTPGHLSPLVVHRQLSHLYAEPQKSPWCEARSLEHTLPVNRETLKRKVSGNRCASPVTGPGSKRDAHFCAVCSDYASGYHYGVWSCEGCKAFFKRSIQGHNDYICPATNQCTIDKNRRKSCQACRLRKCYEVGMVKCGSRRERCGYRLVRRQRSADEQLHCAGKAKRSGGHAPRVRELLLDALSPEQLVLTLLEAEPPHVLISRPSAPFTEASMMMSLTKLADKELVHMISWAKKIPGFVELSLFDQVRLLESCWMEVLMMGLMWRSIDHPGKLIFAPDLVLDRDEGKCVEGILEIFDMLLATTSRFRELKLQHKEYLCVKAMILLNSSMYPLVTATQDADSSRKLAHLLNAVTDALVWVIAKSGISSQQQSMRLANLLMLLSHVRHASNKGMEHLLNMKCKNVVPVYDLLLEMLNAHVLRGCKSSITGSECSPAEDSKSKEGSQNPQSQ
Peroxisome proliferator-activated receptor gamma/Nuclear receptor coactivator 3, sequence (P37231 whole entry): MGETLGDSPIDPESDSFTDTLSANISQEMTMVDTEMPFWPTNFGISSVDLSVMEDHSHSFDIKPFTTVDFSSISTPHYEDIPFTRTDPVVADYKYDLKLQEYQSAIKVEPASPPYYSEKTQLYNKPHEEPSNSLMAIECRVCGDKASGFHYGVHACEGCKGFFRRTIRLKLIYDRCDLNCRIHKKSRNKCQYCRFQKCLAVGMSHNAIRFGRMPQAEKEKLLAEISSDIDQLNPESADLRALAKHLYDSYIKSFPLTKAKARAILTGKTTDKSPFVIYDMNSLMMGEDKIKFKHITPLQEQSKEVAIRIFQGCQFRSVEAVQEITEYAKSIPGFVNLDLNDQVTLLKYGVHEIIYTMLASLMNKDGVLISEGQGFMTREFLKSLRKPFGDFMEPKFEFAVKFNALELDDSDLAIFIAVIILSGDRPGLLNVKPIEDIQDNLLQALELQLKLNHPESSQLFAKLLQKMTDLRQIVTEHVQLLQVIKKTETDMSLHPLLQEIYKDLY
Peroxisome proliferator-activated receptor gamma/Nuclear receptor coactivator 3, sequence (Q9Y6Q9 whole entry, further chain): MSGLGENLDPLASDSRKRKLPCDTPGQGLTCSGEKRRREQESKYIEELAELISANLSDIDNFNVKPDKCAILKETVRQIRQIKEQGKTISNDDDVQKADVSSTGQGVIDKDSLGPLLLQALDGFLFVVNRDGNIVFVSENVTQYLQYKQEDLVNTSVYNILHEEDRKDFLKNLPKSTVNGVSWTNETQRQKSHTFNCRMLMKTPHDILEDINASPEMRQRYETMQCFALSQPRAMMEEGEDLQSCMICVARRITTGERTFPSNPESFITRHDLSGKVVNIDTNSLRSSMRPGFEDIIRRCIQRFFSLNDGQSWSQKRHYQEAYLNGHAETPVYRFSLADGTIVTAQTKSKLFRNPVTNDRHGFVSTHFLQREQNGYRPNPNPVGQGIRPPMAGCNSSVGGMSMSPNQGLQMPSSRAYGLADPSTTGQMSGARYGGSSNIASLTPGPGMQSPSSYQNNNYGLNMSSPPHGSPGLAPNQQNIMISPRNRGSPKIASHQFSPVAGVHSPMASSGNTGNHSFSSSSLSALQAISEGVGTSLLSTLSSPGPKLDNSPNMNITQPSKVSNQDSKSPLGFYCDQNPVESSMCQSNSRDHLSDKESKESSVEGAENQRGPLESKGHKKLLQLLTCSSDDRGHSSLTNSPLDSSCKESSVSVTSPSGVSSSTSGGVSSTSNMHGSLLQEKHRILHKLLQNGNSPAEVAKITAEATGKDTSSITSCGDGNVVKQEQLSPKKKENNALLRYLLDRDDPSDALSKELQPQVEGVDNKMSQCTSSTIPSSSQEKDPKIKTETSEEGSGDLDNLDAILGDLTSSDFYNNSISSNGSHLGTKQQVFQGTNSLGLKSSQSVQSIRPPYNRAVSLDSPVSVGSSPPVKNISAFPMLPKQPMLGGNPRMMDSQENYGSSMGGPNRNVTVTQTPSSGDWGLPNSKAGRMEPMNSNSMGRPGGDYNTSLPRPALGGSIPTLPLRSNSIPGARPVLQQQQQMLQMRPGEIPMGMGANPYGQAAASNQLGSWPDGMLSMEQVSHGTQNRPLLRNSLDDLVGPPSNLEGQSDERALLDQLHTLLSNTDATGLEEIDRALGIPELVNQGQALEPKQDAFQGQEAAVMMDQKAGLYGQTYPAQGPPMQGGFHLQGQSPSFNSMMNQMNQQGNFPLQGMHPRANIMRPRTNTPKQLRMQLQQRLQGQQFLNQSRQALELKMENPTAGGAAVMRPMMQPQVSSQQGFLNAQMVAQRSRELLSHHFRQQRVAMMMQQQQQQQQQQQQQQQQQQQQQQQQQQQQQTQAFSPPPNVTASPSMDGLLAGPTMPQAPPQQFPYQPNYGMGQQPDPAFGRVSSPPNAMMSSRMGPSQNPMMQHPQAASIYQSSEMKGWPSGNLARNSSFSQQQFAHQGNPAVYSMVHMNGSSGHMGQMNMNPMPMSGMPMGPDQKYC
Peroxisome proliferator-activated receptor gamma/Nuclear receptor coactivator 1, sequence (P37231 whole entry): as the sequence (P37231 whole entry) above
Peroxisome proliferator-activated receptor gamma/Nuclear receptor coactivator 1, sequence (Q15788 whole entry, further chain): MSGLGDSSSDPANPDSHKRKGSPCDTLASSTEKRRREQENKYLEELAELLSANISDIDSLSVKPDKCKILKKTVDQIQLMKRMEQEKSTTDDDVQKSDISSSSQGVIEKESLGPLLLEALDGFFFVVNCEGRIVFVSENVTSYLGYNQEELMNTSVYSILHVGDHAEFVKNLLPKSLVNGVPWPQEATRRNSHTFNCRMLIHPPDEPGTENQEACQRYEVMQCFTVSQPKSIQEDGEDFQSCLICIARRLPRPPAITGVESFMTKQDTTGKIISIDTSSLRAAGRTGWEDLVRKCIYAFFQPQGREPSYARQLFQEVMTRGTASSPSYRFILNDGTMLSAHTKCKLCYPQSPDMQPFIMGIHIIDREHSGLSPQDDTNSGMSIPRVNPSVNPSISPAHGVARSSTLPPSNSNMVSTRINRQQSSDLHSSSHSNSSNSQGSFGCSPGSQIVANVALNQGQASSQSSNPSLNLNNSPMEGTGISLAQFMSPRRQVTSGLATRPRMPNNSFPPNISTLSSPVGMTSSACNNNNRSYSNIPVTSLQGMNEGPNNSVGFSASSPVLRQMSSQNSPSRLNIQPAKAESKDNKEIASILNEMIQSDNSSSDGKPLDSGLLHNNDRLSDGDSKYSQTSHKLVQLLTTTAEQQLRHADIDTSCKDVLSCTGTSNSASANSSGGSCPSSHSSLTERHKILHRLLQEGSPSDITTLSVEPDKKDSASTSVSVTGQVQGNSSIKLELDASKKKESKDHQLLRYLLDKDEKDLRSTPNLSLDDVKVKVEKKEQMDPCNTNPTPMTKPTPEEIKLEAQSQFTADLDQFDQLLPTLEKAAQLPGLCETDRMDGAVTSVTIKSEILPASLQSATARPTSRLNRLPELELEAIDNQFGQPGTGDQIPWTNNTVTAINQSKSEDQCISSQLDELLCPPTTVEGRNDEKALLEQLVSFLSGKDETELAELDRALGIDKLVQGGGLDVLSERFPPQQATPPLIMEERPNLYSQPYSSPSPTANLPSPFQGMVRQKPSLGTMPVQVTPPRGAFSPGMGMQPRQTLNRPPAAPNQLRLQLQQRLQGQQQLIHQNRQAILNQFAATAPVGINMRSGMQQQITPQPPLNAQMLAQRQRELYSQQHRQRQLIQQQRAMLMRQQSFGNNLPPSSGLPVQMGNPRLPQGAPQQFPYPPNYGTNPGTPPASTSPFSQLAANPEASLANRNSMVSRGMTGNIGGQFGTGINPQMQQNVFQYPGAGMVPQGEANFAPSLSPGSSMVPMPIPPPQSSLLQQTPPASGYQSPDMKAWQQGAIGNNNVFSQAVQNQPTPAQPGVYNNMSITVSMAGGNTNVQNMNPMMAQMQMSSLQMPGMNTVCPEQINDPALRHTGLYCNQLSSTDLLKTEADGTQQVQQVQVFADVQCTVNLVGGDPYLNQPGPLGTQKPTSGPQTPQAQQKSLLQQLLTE
Nonstructural protein 1, sequence (Q194T2 whole entry): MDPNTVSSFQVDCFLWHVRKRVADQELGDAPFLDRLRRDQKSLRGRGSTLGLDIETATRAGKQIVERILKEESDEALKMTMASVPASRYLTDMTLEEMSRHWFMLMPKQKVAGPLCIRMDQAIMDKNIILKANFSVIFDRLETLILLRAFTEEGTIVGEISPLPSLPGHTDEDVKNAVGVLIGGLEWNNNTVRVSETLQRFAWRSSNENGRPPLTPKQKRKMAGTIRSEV

For Cc1ccccc1-c1nnc(S)n1/N=C/c1c(C)nn(-c2ccccc2)c1C, which CC50 [1] is on record?
The CC50 was 29.1 µM (active).

What about the IC50 [2] of the same molecule?
Its IC50 is 8.4 µM (active).

What about the EC50 [3] of the same molecule?
The EC50 was > 53 µM (inactive).

What about the IC50 [4] of the same molecule?
Its IC50 is 12.3 µM (active).

And the IC50 (cells)?
Its IC50 is 11.3 µM (active).

With CC(=O)Nc1ccccc1OC(=O)c1sc2cc(Cl)ccc2c1Cl as the molecule, how does the IC50 (NADPH oxidase 1) read?
Its IC50 is > 17 µM (not active).

Which IC50 (Estrogen receptor) does the source give for COc1ccc2c(c1)c(=O)oc1cc3oc(C)c(C)c3cc12 here?
Its IC50 is 6.9 µM (active).

And the IC50 (Estrogen receptor beta [5])?
The IC50 was 12.6 µM (active).

And the IC50 (Estrogen receptor beta [6])?
Its IC50 is 0.205 µM (not active).

Which EC50 [7] does the source give for CCc1ccc2nc(O)c(C3C(C#N)=C(N)Oc4c3ccc3cccnc43)cc2c1 (stereo not drawn) here?
Its EC50 is 16.1 µM (active).

What about the EC50 (Streptokinase A) of the same molecule?
The EC50 was > 150 µM (not active).

And the IC50 (Estrogen receptor)?
The IC50 was 11.3 µM (active).

And the IC50 (Estrogen receptor beta [5])?
The IC50 was 12 µM (active).

And the IC50 (Estrogen receptor beta [6])?
The IC50 was 2.79 µM (not active).

What about the EC50 (Streptococcus) of the same molecule?
The EC50 was > 150 µM (not active).

What about the AC50 [8] of the same molecule?
The AC50 was 6.07 µM (active).

What about the IC50 (Nonstructural protein 1) of the same molecule?
Its IC50 is 32.6 µM (active).

What about the AC50 (INS1) of the same molecule?
Its AC50 is 1.46 µM (active).

Which results are given for COc1ccc(C(=O)NCC(=O)N=Nc2c(O)n(Cc3ccccc3)c3ccccc23)cc1OC?
EC50 [9]: > 79.4 µM (not active); EC50 [10]: > 79.4 µM (not active); EC50 [11]: > 79.4 µM (not active)

With Cc1nn(-c2ccccc2)c(Cl)c1C(=O)N1CCN(c2ncnc3c2cnn3-c2ccccc2)CC1 as the molecule, how does the EC50 [12] read?
The EC50 was 5.06 µM (active).

And the EC50 [13]?
The EC50 was 8.56 µM (active).

What about the EC50 [14] of the same molecule?
Its EC50 is 9.4 µM (active).

What about the AC50 (HEK293) of the same molecule?
The AC50 was 5.24 µM (active).

Which results are given for CCOCCCNCc1ccc(OC)c(OC)c1?
EC50 [9]: > 79.4 µM (not active); EC50 [10]: > 79.4 µM (not active); EC50 [11]: > 79.4 µM (not active)

Which results are given for CCn1c(SCC(=O)Nc2ccc(N(C)C)cc2)nnc1-c1cccc(C)c1?
EC50 [12]: > 195 µM (not active); EC50 [13]: > 20 µM (not active); EC50 [14]: 15.8 µM (active); IC50 [15]: 65.2 µM (active)

With COc1cccc(-c2nc(-c3ccccc3)c(-c3ccccc3)[nH]2)c1 as the molecule, how does the IC50 (NADPH oxidase 1) read?
The IC50 was > 17 µM (not active).
